Reference: patent US20070191442A1, “Aqueous Pharmaceutical Formulations of ER-beta Selective Ligands” (priority 2006, published 2007)

Legend:
Assay type in all cases: physicochemical
[1] = Chemical stability of a pharmaceutical composition of Compound 1 (potency, degradation impurities by HPLC); conditions: for Potency (percent of the initial API concentration) / Impurity (MW not given) / Impurity MW 279 / Impurity MW 556 / Impurity MW 574: 15% HPBCD, pH 9.2; for Impurity (MW not given) / Impurity MW 279 / Impurity MW 556 / Impurity MW 574: HPLC
Experimental: As used herein, potency refers to the percent of the initial API concentration.
The potency of each composition was determined, and the concentration of impurities from degradation was measured by HPLC, as shown in Table 4.

[2] = Solubility of Compound 1 formulated with HPBCD (FIG. 2, FIG. 3)
Text: FIG. 2 depicts the water solubility of the unionized form of Compound 1 with increasing concentrations of hydroxypropyl-beta-cyclodextrin (HPBCD). FIG. 3 depicts the water solubility of the ionized form of Compound 1 at pH 9.0 and 10.3 with increasing concentrations of hydroxypropyl-beta-cyclodextrin (HPBCD).

[3] = Serial dilution study with phosphate buffered saline as diluent and blood model; precipitate observed for two minutes
Experimental: A serial dilution study was also undertaken to assess the risk of Compound 1 precipitating upon injection. Phosphate buffered saline (PBS) was used as the diluent and blood model. Accordingly, 10 mg/mL (at pH 9.2) and 30 mg/mL (at pH 10.5) compositions of Compound 1 were prepared by the method described in Example 1, both having 15% HPBCD. The solutions were then serially diluted with PBS.

[4] = Water solubility of Compound 1 with increasing pH (FIG. 1)
Text: FIG. 1 depicts the water solubility of Compound 1 with increasing pH. The aqueous pharmaceutical compositions of the invention include a solubilizer/complexant component, to aid in solubilizing the ERβ selective ligand. […] Accordingly, present compositions include a solubilizer/complexant component to aid in solubilization. Generally, the solubilizer/complexant component consists of one or more solubilizing and/or complexing agents known to be useful in the preparation of pharmaceutical formulations. In some embodiments, the solubilizer/complexant component consists of a single solubilizing and/or complexing agent. In some embodiments, the solubilizer/complexant component includes, but is not limited to, cosolvents such as glycerine, ethanol, propylene glycol, sorbitol and polyethylene glycol, and surfactants such as the polyoxyethylene sorbitan fatty acid esters (e.g., polysorbate 80), polyoxyethylene castor oil derivatives (e.g., cremophor EL, cremophor RH40), vitamin E TPGS (d-alpha-tocopheryl polyethylene glycol), solutol (polyethylene glycol esters of hydroxystearate), polyoxyethylene-polyoxypropylene copolymers, polyoxyethylene fatty alcohol ethers, polyethoxylated fatty acid esters, polyoxyethylene-glycerol fatty esters, polyglycolized glycerides, polyethoxylated cholesterols, polyethoxylated sterols, and polyethoxylated vegetable oils. In some embodiments, the solubilizer/complexant component includes, but is not limited to, cosolvents such as glycerine, ethanol, propylene glycol, and polyethylene glycol, and surfactants such as the polyoxyethylene sorbitan fatty acid esters, polyoxyethylene castor oil derivatives, vitamin E TPGS, and solutol. […] Examples of some preferred solubilizing and/or complexing agents include cyclodextrins (including alpha, beta and gamma cyclodextrins) and substituted cyclodextrins, for example hydroxypropyl beta-cyclodextrin and sulfobutyl ether beta-cyclodextrin, with hydroxypropyl beta-cyclodextrin being preferred. […]

N#Cc1cc(-c2ccc(O)c(F)c2)cc2ccc(O)cc12 [Compound 1, 3-(3-Fluoro-4-hydroxy-phenyl)-7-hydroxy-naphthalene-1-carbonitrile]
Potency (percent of the initial API concentration) ([1]; stored 1 mo. at 25 °C): 100.8
Potency (percent of the initial API concentration) ([1]; stored 1 mo. at 40 °C): 100.4
Impurity (MW not given) ([1]; stored 1 mo. at 40 °C): 0.06
Impurity MW 279 ([1]; stored 1 mo. at 40 °C): 0.07
Impurity MW 556 ([1]; stored 1 mo. at 40 °C): 0.33
Impurity MW 574 ([1]; stored 1 mo. at 40 °C): 0.03
Potency (percent of the initial API concentration) ([1]; stored 3 mo. at 4 °C): 99.9
Potency (percent of the initial API concentration) ([1]; stored 3 mo. at 25 °C): 98.9
Impurity (MW not given) ([1]; stored 3 mo. at 25 °C): 0.02
Impurity MW 279 ([1]; stored 3 mo. at 25 °C): 0.03
Impurity MW 556 ([1]; stored 3 mo. at 25 °C): 0.11
Potency (percent of the initial API concentration) ([1]; stored 3 mo. at 40 °C): 98.1
Impurity (MW not given) ([1]; stored 3 mo. at 40 °C): 0.12
Impurity MW 279 ([1]; stored 3 mo. at 40 °C): 0.16
Impurity MW 556 ([1]; stored 3 mo. at 40 °C): 0.62
Impurity MW 574 ([1]; stored 3 mo. at 40 °C): 0.06
Potency (percent of the initial API concentration) ([1]; stored 6 mo. at 4 °C): 98.0
Impurity MW 556 ([1]; stored 6 mo. at 4 °C): 0.06
Potency (percent of the initial API concentration) ([1]; stored 6 mo. at 25 °C): 97.7
Impurity (MW not given) ([1]; stored 6 mo. at 25 °C): 0.04
Impurity MW 279 ([1]; stored 6 mo. at 25 °C): 0.05
Impurity MW 556 ([1]; stored 6 mo. at 25 °C): 0.36
Impurity MW 574 ([1]; stored 6 mo. at 25 °C): 0.03
Potency (percent of the initial API concentration) ([1]; stored 6 mo. at 40 °C): 93.3
Impurity (MW not given) ([1]; stored 6 mo. at 40 °C): 0.3
Impurity MW 279 ([1]; stored 6 mo. at 40 °C): 0.4
Impurity MW 556 ([1]; stored 6 mo. at 40 °C): 1.57
Impurity MW 574 ([1]; stored 6 mo. at 40 °C): 0.11
molecular weight 556 impurity ([1]; comparable formulation without the HPBCD (5 mg/mL, 50 mM glycine buffer, pH 11), at three days): 0.34%
increase in solubility ([2]; 15% HPBCD at pH 9, compared with free acid form at pH 6.3-7.6 formulated with 15% HPBCD): 10 fold
increase in solubility ([2]; 15% HPBCD at pH 10.3, compared with free acid form at pH 6.3-7.6 formulated with 15% HPBCD): 30 fold
Precipitate at 2 min. ([3]; 10 mg/mL (pH 9.2) composition, 15% HPBCD, diluted with PBS to 0.009766 mg/mL, pH 7.43): none
Precipitate at 2 min. ([3]; 10 mg/mL (pH 9.2) composition, 15% HPBCD, diluted with PBS to 0.019531 mg/mL, pH 7.45): none
Precipitate at 2 min. ([3]; 10 mg/mL (pH 9.2) composition, 15% HPBCD, diluted with PBS to 0.039063 mg/mL, pH 7.47): none
Precipitate at 2 min. ([3]; 10 mg/mL (pH 9.2) composition, 15% HPBCD, diluted with PBS to 0.078125 mg/mL, pH 7.57): none
Precipitate at 2 min. ([3]; 10 mg/mL (pH 9.2) composition, 15% HPBCD, diluted with PBS to 0.15625 mg/mL, pH 7.75): none
Precipitate at 2 min. ([3]; 10 mg/mL (pH 9.2) composition, 15% HPBCD, diluted with PBS to 0.3125 mg/mL, pH 8.01): none
Precipitate at 2 min. ([3]; 10 mg/mL (pH 9.2) composition, 15% HPBCD, diluted with PBS to 0.625 mg/mL, pH 8.36): none
Precipitate at 2 min. ([3]; 10 mg/mL (pH 9.2) composition, 15% HPBCD, diluted with PBS to 1.25 mg/mL, pH 8.65): none
Precipitate at 2 min. ([3]; 10 mg/mL (pH 9.2) composition, 15% HPBCD, diluted with PBS to 2.5 mg/mL, pH 8.83): none
Precipitate at 2 min. ([3]; 10 mg/mL (pH 9.2) composition, 15% HPBCD, diluted with PBS to 5 mg/mL, pH 9.04): none
concentration of Compound 1 on dilution relative to water solubility (FIG. 4) ([3]; 10 mg/mL and 30 mg/mL solutions, 15% HPBCD, serial dilution with PBS): maintained above the water solubility for sufficient time for complete dilution in the blood stream
tendency to precipitate upon dilution ([3]; 10 mg/mL solution versus 30 mg/mL solution, both 15% HPBCD, diluted with PBS): lower tendency to precipitate upon dilution
Precipitate at 2 min. ([3]; 30 mg/mL (pH 10.5) composition, 15% HPBCD, diluted with PBS to 0.029297 mg/mL, pH 7.55): yes
Precipitate at 2 min. ([3]; 30 mg/mL (pH 10.5) composition, 15% HPBCD, diluted with PBS to 0.058594 mg/mL, pH 7.68): yes
Precipitate at 2 min. ([3]; 30 mg/mL (pH 10.5) composition, 15% HPBCD, diluted with PBS to 0.117188 mg/mL, pH 8): yes
Precipitate at 2 min. ([3]; 30 mg/mL (pH 10.5) composition, 15% HPBCD, diluted with PBS to 0.234375 mg/mL, pH 8.45): yes
Precipitate at 2 min. ([3]; 30 mg/mL (pH 10.5) composition, 15% HPBCD, diluted with PBS to 0.46875 mg/mL, pH 8.82): none
Precipitate at 2 min. ([3]; 30 mg/mL (pH 10.5) composition, 15% HPBCD, diluted with PBS to 0.9375 mg/mL, pH 9): none
Precipitate at 2 min. ([3]; 30 mg/mL (pH 10.5) composition, 15% HPBCD, diluted with PBS to 1.875 mg/mL, pH 9.32): none
Precipitate at 2 min. ([3]; 30 mg/mL (pH 10.5) composition, 15% HPBCD, diluted with PBS to 3.75 mg/mL, pH 9.6): none
Precipitate at 2 min. ([3]; 30 mg/mL (pH 10.5) composition, 15% HPBCD, diluted with PBS to 7.5 mg/mL, pH 9.9): none
Precipitate at 2 min. ([3]; 30 mg/mL (pH 10.5) composition, 15% HPBCD, diluted with PBS to 15 mg/mL, pH 10.17): none
solubility at the pH maxima considered safe for IV administration ([4]; about pH 10): poorly soluble
solubility at lower pH ([4]; lower pH): relatively insoluble
solubility in water ([4]; water): insoluble in water
